Assay results published in US5232922A, “Imidazole compounds, processes for their preparation, pharmaceuticals based on these compounds and some intermediates” (priority 1990, dated 1993).

Test system: photochemically-induced thrombosis in mesenterial arterioles
Test: Inhibition of photochemically-induced thrombosis in mesenterial arterioles
Assay type: in vivo, rat
Conditions: 1 mg/kg p.o.
Protocol: In this model, rats were anesthetized as described above under 2). The investigations were carried out on mesenterial arterioles having a diameter of 11 to 50 lm. A thrombosis was induced in a modification in accordance with a method known from the literature (Herrmann, K. H. Microvasc. Res. 26, 238-249, 1983) and is based on the photochemical release of singlet oxygen, which leads locally to an endothelial lesion. The animals to be investigated received an intravenous injection of 0.3 ml of a 10% strength solution of fluorescein in isothiocyanate--Dextran 70 (FITC--Dextran 70 s, Sigma, Munich). The arterole was looked for under the microscope and centered in the observation field. The FITC--Dextran in the blood vessel was then excited using a special lamp and filter device (excitation 490 nm, emission 510 nm). For evaluation of thrombus formation, the time was taken which extended from the point of excitation to the formation of a first thrombus on the wall. 5 vessels in each animal were examined in this manner.

SMILES	inhibition of photochemically-induced thrombosis [%]
CC(=O)CCCCn1c(=O)c2c(ncn2C)n(C)c1=O [Pentoxyfylline, 1-(5-oxohexyl)-3,7-dimethylxanthine, reference compound]	29
Cn1cnc(S(=O)(=O)NCCCN2CCOCC2)c1 [Example 7, N-(3-Morpholinopropyl)-1-methyl-4-imidazolesulfonamide]	69

Same assay, conditions: 3 mg/kg i.v.

SMILES	inhibition of photochemically-induced thrombosis [%]
CC(=O)CCCCn1c(=O)c2c(ncn2C)n(C)c1=O [Pentoxyfylline, 1-(5-oxohexyl)-3,7-dimethylxanthine, reference compound]	3
Cn1cnc(S(=O)(=O)NCCCN2CCOCC2)c1 [Example 7, N-(3-Morpholinopropyl)-1-methyl-4-imidazolesulfonamide]	36

Same assay, conditions: 3 mg/kg p.o.

SMILES	inhibition of photochemically-induced thrombosis [%]
CC(=O)CCCCn1c(=O)c2c(ncn2C)n(C)c1=O [Pentoxyfylline, 1-(5-oxohexyl)-3,7-dimethylxanthine, reference compound]	18
Cn1cnc(S(=O)(=O)NCCCN2CCOCC2)c1 [Example 7, N-(3-Morpholinopropyl)-1-methyl-4-imidazolesulfonamide]	75

Same assay, conditions: 10 mg/kg i.v.

SMILES	inhibition of photochemically-induced thrombosis [%]
CC(=O)CCCCn1c(=O)c2c(ncn2C)n(C)c1=O [Pentoxyfylline, 1-(5-oxohexyl)-3,7-dimethylxanthine, reference compound]	38
Cn1cnc(S(=O)(=O)NCCCN2CCOCC2)c1 [Example 7, N-(3-Morpholinopropyl)-1-methyl-4-imidazolesulfonamide]	56

Same assay, conditions: 10 mg/kg p.o.

SMILES	inhibition of photochemically-induced thrombosis [%]
CC(=O)CCCCn1c(=O)c2c(ncn2C)n(C)c1=O [Pentoxyfylline, 1-(5-oxohexyl)-3,7-dimethylxanthine, reference compound]	68
Cn1cnc(S(=O)(=O)NCCCN2CCOCC2)c1 [Example 7, N-(3-Morpholinopropyl)-1-methyl-4-imidazolesulfonamide]	130

Same assay, conditions: rat, in vivo

SMILES	inhibition of photochemically-induced thrombosis (in words)
Cn1cnc(S(=O)(=O)NCCCN2CCOCC2)c1 [Example 7, N-(3-Morpholinopropyl)-1-methyl-4-imidazolesulfonamide]	inhibited in a dose-dependent and statistically significant manner

Test system: skeletal muscle of the rat (chronic ischemic)
Test: Effect on the contractility of the skeletal muscle after chronic ischemia (tiring index)
Assay type: in vivo, rat (male Wistar)
Conditions: 6 mg/kg p.o. over 7 days, n = 4-6; tiring index = maximum contractility / residual force after 5 min stimulation
Source text: 1) Effect on the Contractility of the Skeletal Muscle After Chronic Ischemia
In recent years, a marked change has taken place in ideas about the pathophysiology of chronic peripheral arterial occlusive disease as scientific interest has to an increasing extent shifted from the macrocirculation to the microcirculation. Disturbances in the microcirculation therefore manifest themselves in an undersupply of substrates with tissue ischemia resulting therefrom which, in turn, leads to an impairment in the function of the extremity concerned. The logical consequence of this is that the target organ skeletal muscle comes more and more into the forefront. […] The clinical activity is in fact also consistently determined in humans with the aid of the painless walking distance on the moving walkway.
Male Wistar rats having a body weight of 380 to 410 g were used as experimental animals. Under hexobarbital anesthesia (®Evipan--sodium, 200 mg/kg BW (=body weight) i.p.), a unilateral ligature of the right femoral artery was applied to the animals in the groin. After sprinkling penicillin sulfonamide powder for antibiotic wound care, the small operation wound was closed and the animals were continuously observed until they were completely awake. One week later, the administration of substance began by oral administration using a stomach tube (6 mg/kg BW, carboxymethylcellulose-sodium suspension) and was continued for 7 days (single administration per day, about 7h30 to 8h30). The contractility was measured 24 h after the last administration of substance in order to exclude acute effects, to be precise by the following experimental protocol:
Superfusion with physiological saline solution (37° C.) was used to avoid drying out and cooling. The mean arterial blood pressure was recorded continuously via Statham (=blood pressure measuring device) by means of a cannulated caroted artery to control the physiological status of the animals during the experiment. All animals breathed spontaneously by means of an inserted tracheal tube.
After these preparations, the muscle was made to contract (Stimulator I, Hugo Sachs, Federal Republic of Germany) by direct electrical stimulation (2.5 mA, 2 Hz). The absolute contractility in grams at various times of stimulation was used as the measured parameter. […] If the maximum contractility at the start of stimulation is now divided by the residual force remaining after 5 minutes' tiring stimulation, a "tiring index TI" for the muscle concerned can be calculated; the ability to tire here is larger the larger TI is numerically.
4 to 6 individual experiments were carried out for each test preparation.

SMILES	TI of ischemic treated muscle
Cl.Cn1ccnc1S(=O)(=O)NCCCN1CCOCC1 [Example 29, N-(3-Morpholinopropyl)-1-methyl-2-imidazolesulfonamide hydrochloride]	2.74
Cl.Cn1cnc(S(=O)(=O)NCCCCCN2CCOCC2)c1Cl [Example 34, N-(5-Morpholino-1-pentyl)-5-chloro-1-methyl-4-imidazolesulfonamide hydrochloride]	1.98
Cn1cnc(S(=O)(=O)NCCc2ccc(O)cc2)c1Cl [Example 46, N-(4-hydroxyphenethyl-)-5-chloro-1-methyl-4-imidazolesulfonamide]	2.05
CC(=O)CCCCn1c(=O)c2c(ncn2C)n(C)c1=O [Pentoxyfylline, 1-(5-oxohexyl)-3,7-dimethylxanthine, reference compound]	3.20
Cn1cnc(S(=O)(=O)N2CCN(c3ccc(O)cc3)CC2)c1 [Example 25]	2.11
Cn1cnc(S(=O)(=O)NCCCN2CCOCC2)c1 [Example 7, N-(3-Morpholinopropyl)-1-methyl-4-imidazolesulfonamide]	2.79

Same assay, conditions: Rattus norvegicus, po, 168 h; 6 mg/kg p.o. over 7 days, n = 4-6; smaller value = more effective; read-out: Percentage change (TI of ischemic treated muscle vs TI of normal non-treated muscle)

SMILES	change in vivo at 6 mg/kg [%]
Cl.Cn1ccnc1S(=O)(=O)NCCCN1CCOCC1 [Example 29, N-(3-Morpholinopropyl)-1-methyl-2-imidazolesulfonamide hydrochloride]	38.4
Cl.Cn1cnc(S(=O)(=O)NCCCCCN2CCOCC2)c1Cl [Example 34, N-(5-Morpholino-1-pentyl)-5-chloro-1-methyl-4-imidazolesulfonamide hydrochloride]	0
Cn1cnc(S(=O)(=O)NCCc2ccc(O)cc2)c1Cl [Example 46, N-(4-hydroxyphenethyl-)-5-chloro-1-methyl-4-imidazolesulfonamide]	-6.4
CC(=O)CCCCn1c(=O)c2c(ncn2C)n(C)c1=O [Pentoxyfylline, 1-(5-oxohexyl)-3,7-dimethylxanthine, reference compound]	43.5
Cn1cnc(S(=O)(=O)N2CCN(c3ccc(O)cc3)CC2)c1 [Example 25]	6.6
Cn1cnc(S(=O)(=O)NCCCN2CCOCC2)c1 [Example 7, N-(3-Morpholinopropyl)-1-methyl-4-imidazolesulfonamide]	0.3

Test system: acutely ischemic muscle
Test: Contractility in the acutely ischemic muscle
Assay type: in vivo
Conditions: 0.03 mg/kg/min i.v.
Protocol: The contractility in the acutely ischemic muscle was measured in a similar experimental procedure, as described under 1). The muscle, initially normally supplied with blood, was made to contract isometrically by direct electrical stimulation (1.2 Hz, 2.5 mA). The right femoral artery was then occluded for 5 min by means of a clamp. […] The vessel was then reopened and the starting contractility before the first occlusion was attained. During the second occlusion which then followed, the preparations to be tested were administered intravenously in aqueous solution via the jugular vein. 4-8 animals were employed per preparation and dose. The decrease in the contractility during occlusion with and without substance administration was compared and the percentage change was used to evaluate the substance activity. The substances according to the invention, for example the compound of Example 7, were also remarkable in this test for outstanding effects.

SMILES	improvement of contractility in the acutely ischemic muscle
Cn1cnc(S(=O)(=O)NCCCN2CCOCC2)c1 [Example 7, N-(3-Morpholinopropyl)-1-methyl-4-imidazolesulfonamide]	+17.2%

Same assay, conditions: 0.3 mg/kg/min i.v.

SMILES	improvement of contractility in the acutely ischemic muscle
Cn1cnc(S(=O)(=O)NCCCN2CCOCC2)c1 [Example 7, N-(3-Morpholinopropyl)-1-methyl-4-imidazolesulfonamide]	+25.2%

Same assay, conditions: i.v.

SMILES	activity in acute ischemic muscle contractility test (in words)
CC(=O)CCCCn1c(=O)c2c(ncn2C)n(C)c1=O [Pentoxyfylline, 1-(5-oxohexyl)-3,7-dimethylxanthine, reference compound]	only showed marginal activity

Test system: laser-induced thrombosis
Test: Inhibition of laser-induced thrombosis in hyperlipidemic, spontaneously hypertensive, stroke-prone rats
Assay type: in vivo, rat (hyperlipidemic hypertensive)
Conditions: 10 mg/kg daily for 7 days

SMILES	inhibition of laser-induced thrombosis [%]
Cn1cnc(S(=O)(=O)NCCCN2CCOCC2)c1 [Example 7, N-(3-Morpholinopropyl)-1-methyl-4-imidazolesulfonamide]	18

Same assay, conditions: 30 mg/kg daily for 7 days

SMILES	inhibition of laser-induced thrombosis [%]
Cn1cnc(S(=O)(=O)NCCCN2CCOCC2)c1 [Example 7, N-(3-Morpholinopropyl)-1-methyl-4-imidazolesulfonamide]	32

Test system: not listed separately
Test: Acute toxicity (LD50 range)
Conditions: mouse, in vivo, ip, single administration, NMRI mice, 7 days
Protocol: The determination of the LD50 ranges was carried out in standard fashion by means of the mortality occurring in the course of 7 days in NMRI mice after single intravenous (i.v.) or intraperitoneal (i.p.) administration (NMRI=NIH Medical Research Institute).

SMILES	LD50 at 168 h [mg/kg]
Cn1cnc(S(=O)(=O)NCCc2ccc(O)cc2)c1Cl [Example 46, N-(4-hydroxyphenethyl-)-5-chloro-1-methyl-4-imidazolesulfonamide]	> 1200
Cn1cnc(S(=O)(=O)N2CCN(c3ccc(O)cc3)CC2)c1 [Example 25]	> 300

Same assay, conditions: mouse, in vivo, iv, single administration, NMRI mice, 7 days

SMILES	LD50 at 168 h [mg/kg]
Cl.Cn1ccnc1S(=O)(=O)NCCCN1CCOCC1 [Example 29, N-(3-Morpholinopropyl)-1-methyl-2-imidazolesulfonamide hydrochloride]	> 100
Cl.Cn1cnc(S(=O)(=O)NCCCCCN2CCOCC2)c1Cl [Example 34, N-(5-Morpholino-1-pentyl)-5-chloro-1-methyl-4-imidazolesulfonamide hydrochloride]	> 100
Cn1cnc(S(=O)(=O)NCCCN2CCOCC2)c1 [Example 7, N-(3-Morpholinopropyl)-1-methyl-4-imidazolesulfonamide]	> 100

Test system: laser-induced thrombosis
Test: Inhibition of laser-induced thrombosis in atherosclerotic rabbits
Assay type: in vivo, rabbit (atherosclerotic)
Conditions: 30 mg/kg daily for 14 days

SMILES	inhibition of laser-induced thrombosis [%]
Cn1cnc(S(=O)(=O)NCCCN2CCOCC2)c1 [Example 7, N-(3-Morpholinopropyl)-1-methyl-4-imidazolesulfonamide]	36

Test system: laser-induced thrombosis in mesenterial arterioles
Test: Inhibition of laser-induced thrombosis in mesenterial arterioles of the rat
Assay type: in vivo, rat (female Sprague-Dawley)
Conditions: Rattus norvegicus, po; 10 mg/kg p.o.; read-out: Percentage change vs control (inhibition of laser-induced thrombosis)

SMILES	inhibition in vivo at 10 mg/kg [%]
Cl.Cn1ccnc1S(=O)(=O)NCCCN1CCOCC1 [Example 29, N-(3-Morpholinopropyl)-1-methyl-2-imidazolesulfonamide hydrochloride]	21
Cl.Cn1cnc(S(=O)(=O)NCCCCCN2CCOCC2)c1Cl [Example 34, N-(5-Morpholino-1-pentyl)-5-chloro-1-methyl-4-imidazolesulfonamide hydrochloride]	15
Cn1cnc(S(=O)(=O)NCCc2ccc(O)cc2)c1Cl [Example 46, N-(4-hydroxyphenethyl-)-5-chloro-1-methyl-4-imidazolesulfonamide]	29
Cn1cnc(S(=O)(=O)N2CCN(c3ccc(O)cc3)CC2)c1 [Example 25]	22
Cn1cnc(S(=O)(=O)NCCCN2CCOCC2)c1 [Example 7, N-(3-Morpholinopropyl)-1-methyl-4-imidazolesulfonamide]	36

Same assay, conditions: Rattus norvegicus, po; 30 mg/kg p.o.; read-out: Percentage change vs control (inhibition of laser-induced thrombosis)

SMILES	inhibition in vivo at 30 mg/kg [%]
Cn1cnc(S(=O)(=O)NCCc2ccc(O)cc2)c1Cl [Example 46, N-(4-hydroxyphenethyl-)-5-chloro-1-methyl-4-imidazolesulfonamide]	29

Test system: capillary bed of the skeletal muscle of the rat
Test: Laser-Doppler flow measurement of erythrocyte flux in acutely ischemic skeletal muscle
Assay type: in vivo, rat (male Wistar)
Conditions: 0.03 mg/kg/min i.v. infusion, during occlusion
Protocol: Using laser-Doppler flow measurements (LDF), the erythrocyte flux (the number of cells flowing past under the laser beam x their velocity) can be measured in a noninvasive and continuous manner in the capillary bed of the skeletal muscle of the rat (perimed PF2 laser-Doppler flowmeter, Perimed, Sweden). […] The apparatus was set as follows: 12 kHz, gain 10, time constant 1.5 sec, 37° C. The right femoral artery of male Wistar rats having a body weight of 380-430 g was exposed and the skin and the connective tissue was dissected away over a small muscle area (anterior tibia). The probe was placed about 1 mm above this area. […] At this point, the test substances were infused intravenously in aqueous solution (0.03 and 0.6 mg/kg/min). The maximum percentage increase in the erythrocyte flux after administration of substance during the occlusion (see also Okyayuz-Baklouti, I., European J. of Pharmacology, 166: 75-86, 1989) was used as the measuring parameter for the substance activity. […] 3-7 animals were employed per preparation and dose.

SMILES	maximum percentage increase in the erythrocyte flux
CC(=O)CCCCn1c(=O)c2c(ncn2C)n(C)c1=O [Pentoxyfylline, 1-(5-oxohexyl)-3,7-dimethylxanthine, reference compound]	24.6%
Cn1cnc(S(=O)(=O)NCCCN2CCOCC2)c1 [Example 7, N-(3-Morpholinopropyl)-1-methyl-4-imidazolesulfonamide]	+53.3%

Same assay, conditions: 0.6 mg/kg/min i.v. infusion, during occlusion

SMILES	maximum percentage increase in the erythrocyte flux
CC(=O)CCCCn1c(=O)c2c(ncn2C)n(C)c1=O [Pentoxyfylline, 1-(5-oxohexyl)-3,7-dimethylxanthine, reference compound]	33.1%
Cn1cnc(S(=O)(=O)NCCCN2CCOCC2)c1 [Example 7, N-(3-Morpholinopropyl)-1-methyl-4-imidazolesulfonamide]	+80.6%
